Measurements as given in US20230218657A1, “COMPOSITIONS, THEIR USES IN THERAPY AND METHODS THEREOF” (National University of Singapore, priority 2020, published 2023).
“Also recorded” adds a separate entry of the source.

Experiments:
Assay type in all cases: in vivo
[1] = tested on: apoE-/- mice; assay: Footpad tissue edema / swelling observed macroscopically in apoE-/- mice
Text: (§1) To evaluate the effect of cyclodextrin on secondary lymphedema, an animal model of lymphatic insufficiency that mimics human pathophysiology of lymphedema was used, e.g adipose tissue remodeling, lipid accumulation, inflammation and fibrosis. This mouse model can be apoE lipoprotein E deficient mice. […] It is believed that this lymphatic insufficiency leads to adipose tissue expansion and then loss and fibrosis as also observed in human secondary lymphedema. To confirm this, female apoE-/- mice were treated with 2 g/kg body of cyclodextrin […] subcutaneously or vehicle alone (saline) subcutaneously every alternative day for a total of 2, 4 or 8 doses. Mice were euthanized, tissue swelling was observed macroscopically and lymphatic transport was examined by following up the transport of FITC dextran from the front footpad to the draining lymph nodes. Skin tissues was also examined histologically for lipid content (Oil red O staining).
FIG. 1 illustrates images of footpads from female wild-type (WT) or apoE-/-mice after receiving subcutaneous injection of cyclodextrin (CD; 2 g/kg body weight) or saline (control, NT) every alternative day for a total of 4 doses and harvested when mice were 17 weeks old on high fat diet. Swelling of the footpad of the mice was observed macroscopically (arrow heads: swelling region).

[2] = tested on: apoE-/- mice; assay: Oil red O staining of footpad skin for lipid accumulation; conditions: 2 g/kg subcutaneous, alternate days, 4 doses; female apoE-/- mice, 17 weeks old, high fat diet; vs saline
Text: as §1
FIG. 2 illustrates microscopic images of female WT or apoE-/- mice after receiving subcutaneous injection of cyclodextrin (CD; 2 g/kg body weight) or saline (control, NT) every alternative day for a total of 4 doses and harvested when mice were 17 weeks old on high fat diet. Section of footpad skin were stained for neutral lipid with Oil red O (red staining) to identify lipid accumulation in the tissue.

[3] = tested on: apoE-/- mice; assay: Lymphatic transport of FITC dextran from footpad to draining lymph node
Text: as §1
FIG. 3 plots the relative fluorescence in the lymph nodes of respective female WT or apoE-/- mice after receiving subcutaneous injection of cyclodextrin (CD; 2 g/kg body weight) or Saline (control, NT) every alternative day for a total of 4 doses. The mice were harvested when the mice were 17 weeks old on high fat diet. Lymphatic drainage was assessed by measuring the transport of fluorescent dextran from the footpad (site of injection) to the draining lymph node.
FIG. 4 plots the relative fluorescence in the lymph nodes of the respective mice under a different dosage regime.

[4] = tested on: apoE-/- mice; assay: Total cholesterol in front footpad and plasma cholesterol
Text: Cyclodextrin was administrated subcutaneously alternate days.

[5] = tested on: apoE-/- mice; assay: Masson's Trichrome staining of back skin (fibrosis, collagen deposition); conditions: 17 weeks old, particularly the 8 doses regime
Protocol: (§2) The formulation was assessed if it can reverses some tissue changes associated with lymphedema including fibrosis and inflammation.
Collagen was stained in blue, muscle and cytoplasm was stained in red and the nucleus was stained in black.

[6] = tested on: apoE-/- mice; assay: CD68 immunofluorescence staining of back skin (inflammation, macrophage infiltration); conditions: 17 weeks old, particularly the 8 doses regime
Protocol: as §2
CD68 is a pan-macrophage marker, perilipin was used to identify adipocytes and DAPI stains for the nucleus.

[7] = 8 doses, apoE-/- mice at 42 weeks of age (greater severity)

cyclodextrin was tested, and the “tissue edema / footpad swelling” value ([1]; 2 g/kg subcutaneous, alternate days, 4 doses, female apoE-/- mice, 17 weeks old, high fat diet, vs saline) was “improved significantly tissue edema in the footpad; also recorded: decreased footpad swelling”, the tissue swelling [1, 7] was “not able to improve lymphatic function and ameliorate tissue changes such as tissue swelling” and the reducing lymphedema ([1]; intradermal injection, animal model of lymphedema (summary statement)) was “effective in reducing lymphedema”. For the same substance, the “lipid accumulation in footpad skin (Oil red O staining)” value [2] was “decreased lipid accumulation; also recorded: decreased accumulation of lipids”, the lymphatic function ([3]; 2 g/kg subcutaneous, alternate days, 2 doses, female apoE-/- mice, 17 weeks old) was “improved lymphatic function but in lesser extent compared to 4 doses; also recorded: sufficient to improve lymphatic function” and the “lymphatic transport / lymphatic function” value ([3]; 2 g/kg subcutaneous, alternate days, 4 doses, female apoE-/- mice, 17 weeks old) was “completely restored lymphatic transport; also recorded: restoring completely lymphatic function; also recorded: completely restored it”. For the same substance, the lymphatic function ([3]; 2 g/kg subcutaneous, alternate days, 8 doses, female apoE-/- mice, 17 weeks old, compared to 4 doses) was “did not further enhance lymphatic function; also recorded: did not improve further lymphatic function”, the lymphatic function [3, 7] was “not able to improve lymphatic function” and the plasma cholesterol levels ([4]; apoE-/- mice treated with cyclodextrin) was “does not affect plasma cholesterol levels”. The “tissue cholesterol (total cholesterol in front footpad)” value ([4]; subcutaneous, alternate days, 4 or 8 doses, apoE-/- mice, 17 weeks old) was “reduces tissue cholesterol; also recorded: decreased total cholesterol levels in the front foot pad”, the “fibrosis (collagen deposition) in back skin” value [5] was “reduces fibrosis” and the “inflammation (infiltration of macrophages in adipose tissue, CD68) in back skin” value [6] was “reduces fibrosis (FIG. 7A) and inflammation; also recorded: the extent of macrophage accumulation and crown-like structures (white boxes) decreases”.
